Results: ChEMBL document CHEMBL3585283, “Synthesis and evaluation of a series of quinolinyl trans-cyanostilbene analogs as anticancer agents” (2014)
The source made the active and inactive calls. The calls are words filed in the database; no cut-off is given here.

Legend:
SNB-19 = test: Antitumor activity against human SNB19 cells after 48 hrs; type: functional; conditions: SNB-19, 48 h
[1] = Antitumor activity against human LOXIMVI cells after 48 hrs; type: functional; conditions: LOX IMVI
HT-29 = test: Antitumor activity against human HT-29 cells after 48 hrs; type: functional; conditions: HT-29, 48 h
HOP-62 = test: Antitumor activity against human HOP62 cells after 48 hrs; type: functional; conditions: HOP-62, 48 h
[2] = Antitumor activity against human MOLT4 cells after 48 hrs; type: functional; conditions: MOLT-4, 48 h
IGROV-1 = test: Antitumor activity against human IGROV1 cells after 48 hrs; type: functional; conditions: IGROV-1, 48 h
SW-620 = test: Antitumor activity against human SW620 cells after 48 hrs; type: functional
PC-3 = test: Antitumor activity against human PC3 cells after 48 hrs; type: functional; conditions: PC-3, 48 h
SN12C = test: Antitumor activity against human SN12C cells after 48 hrs; type: functional
NCI-H322M = test: Antitumor activity against human NCI-H322M cells after 48 hrs; type: functional
OVCAR-8 = test: Antitumor activity against human OVCAR8 cells after 48 hrs; type: functional; conditions: OVCAR-8, 48 h
TK-10 = test: Antitumor activity against human TK10 cells after 48 hrs; type: functional; conditions: TK-10, 48 h
SF-268 = test: Antitumor activity against human SF268 cells after 48 hrs; type: functional; conditions: SF-268, 48 h
SNB-75 = test: Antitumor activity against human SNB75 cells after 48 hrs; type: functional; conditions: SNB-75, 48 h
[3] = Antitumor activity against human BT549 cells after 48 hrs; type: functional; conditions: BT-549, 48 h
NCI-H522 = test: Antitumor activity against human NCI-H522 cells after 48 hrs; type: functional; conditions: NCI-H522, 48 h
CCRF-CEM = test: Antitumor activity against human CCRF-CEM cells after 48 hrs; type: functional
[4] = Antitumor activity against human Hs578T cells after 48 hrs; type: functional; conditions: Hs-578T
MDA-MB-231 = test: Antitumor activity against human MDA-MB-231 cells after 48 hrs; type: functional; conditions: MDA-MB-231, 48 h
[5] = Antitumor activity against human SF295 cells after 48 hrs; type: functional; conditions: SF-295, 48 h
[6] = Antitumor activity against human HOP92 cells after 48 hrs; type: functional; conditions: HOP-92, 48 h
OVCAR-4 = test: Antitumor activity against human OVCAR4 cells after 48 hrs; type: functional; conditions: OVCAR-4, 48 h
NCI-H226 = test: Antitumor activity against human NCI-H226 cells after 48 hrs; type: functional; conditions: NCI-H226, 48 h
NCI-H460 = test: Antitumor activity against human NCI-H460 cells after 48 hrs; type: functional; conditions: NCI-H460, 48 h
[7] = Antitumor activity against human COLO205 cells after 48 hrs; type: functional; conditions: COLO 205, 48 h
HL-60(TB) = test: Antitumor activity against human HL-60(TB) cells after 48 hrs; type: functional; conditions: HL-60, 48 h
A549 = test: Antitumor activity against human A549 cells after 48 hrs; type: functional; conditions: A549, 48 h
EKVX = test: Antitumor activity against human EKVX cells after 48 hrs; type: functional, cell-based
SK-MEL-5 = test: Antitumor activity against human SK-MEL-5 cells after 48 hrs; type: functional; conditions: SK-MEL-5, 48 h
DU-145 = test: Antitumor activity against human DU145 cells after 48 hrs; type: functional; conditions: DU-145, 48 h
HCT-116 = test: Antitumor activity against human HCT116 cells after 48 hrs; type: functional; conditions: HCT-116, 48 h
SR = test: Antitumor activity against human SR cells after 48 hrs; type: functional
UACC-62 = test: Antitumor activity against human UACC62 cells after 48 hrs; type: functional; conditions: UACC-62, 48 h
MCF7 = test: Antitumor activity against human MCF7 cells after 48 hrs; type: functional; conditions: MCF7, 48 h
K562 = test: Antitumor activity against human K562 cells after 48 hrs; type: functional; conditions: K562, 48 h
[8] = Antitumor activity against human NCI-ADR-RES cells after 48 hrs; type: functional
[9] = Antitumor activity against human RPMI8226 cells after 48 hrs; type: functional; conditions: RPMI-8226, 48 h
U-251 = test: Antitumor activity against human U251 cells after 48 hrs; type: functional; conditions: U-251, 48 h
M14 = test: Antitumor activity against human M14 cells after 48 hrs; type: functional; conditions: M14, 48 h
Malme-3M = test: Antitumor activity against human MALME-3M cells after 48 hrs; type: functional
UACC-257 = test: Antitumor activity against human UACC257 cells after 48 hrs; type: functional; conditions: UACC-257, 48 h
[10] = Antitumor activity against human RXF393 cells after 48 hrs; type: functional; conditions: RXF 393, 48 h
CAKI-1 = test: Antitumor activity against human Caki1 cells after 48 hrs; type: functional; conditions: CAKI-1, 48 h
OVCAR-3 = test: Antitumor activity against human OVCAR3 cells after 48 hrs; type: functional; conditions: OVCAR-3, 48 h
HCT-15 = test: Antitumor activity against human HCT15 cells after 48 hrs; type: functional; conditions: HCT-15, 48 h
SK-OV-3 = test: Antitumor activity against human SKOV3 cells after 48 hrs; type: functional; conditions: SK-OV-3, 48 h
SK-MEL-2 = test: Antitumor activity against human SK-MEL-2 cells after 48 hrs; type: functional; conditions: SK-MEL-2, 48 h
NCI-H23 = test: Antitumor activity against human NCI-H23 cells after 48 hrs; type: functional; conditions: NCI-H23, 48 h
[11] = Antitumor activity against human SF539 cells after 48 hrs; type: functional; conditions: SF-539, 48 h
T47D = test: Antitumor activity against human T47D cells after 48 hrs; type: functional
MDA-MB-468 = test: Antitumor activity against human MDA-MB-468 cells after 48 hrs; type: functional; conditions: MDA-MB-468, 48 h
ACHN = test: Antitumor activity against human ACHN cells after 48 hrs; type: functional
SK-MEL-28 = test: Antitumor activity against human SK-MEL-28 cells after 48 hrs; type: functional; conditions: SK-MEL-28, 48 h
A498 = test: Antitumor activity against human A498 cells after 48 hrs; type: functional; conditions: A498, 48 h
MDA-MB-435 = test: Antitumor activity against human MDA-MB-435 cells after 48 hrs; type: functional; conditions: MDA-MB-435, 48 h
[12] = Antitumor activity against human HCC2998 cells after 48 hrs; type: functional; conditions: HCC 2998, 48 h
KM12 = test: Antitumor activity against human KM12 cells after 48 hrs; type: functional; conditions: KM12, 48 h
OVCAR-5 = test: Antitumor activity against human OVCAR5 cells after 48 hrs; type: functional; conditions: OVCAR-5, 48 h
786-0 = test: Antitumor activity against human 786-0 cells after 48 hrs; type: functional; conditions: 786-0, 48 h
UO-31 = test: Antitumor activity against human UO31 cells after 48 hrs; type: functional; conditions: UO-31, 48 h

COc1cc(OC)cc(/C(C#N)=C/c2cnc3ccccc3c2)c1
GI50 (SNB-19): 0.614 µM
GI50 [1]: 0.672 µM
GI50 (HT-29): 0.362 µM
GI50 (HOP-62): 0.793 µM
GI50 [2]: 0.378 µM
GI50 (IGROV-1): 3.5 µM
GI50 (SW-620; SW-620, 48 h): 0.352 µM
GI50 (PC-3): 0.506 µM
GI50 (SN12C): 0.661 µM
GI50 (NCI-H322M): 0.903 µM
GI50 (OVCAR-8): 0.584 µM
GI50 (TK-10): 17.7 µM
GI50 (SF-268): 0.654 µM
GI50 (SNB-75): 0.224 µM
GI50 [3]: 0.388 µM
GI50 (NCI-H522): 0.069 µM
GI50 (CCRF-CEM): 0.332 µM
GI50 [4]: 0.715 µM
GI50 (MDA-MB-231): 1.15 µM
GI50 [5]: 0.243 µM
GI50 [6]: 3.09 µM
GI50 (OVCAR-4): 1.73 µM
GI50 (NCI-H226): 62.2 µM
GI50 (NCI-H460): 0.362 µM
GI50 [7]: 0.398 µM
GI50 (HL-60(TB)): 0.234 µM
GI50 (A549): 0.556 µM
GI50 (EKVX): inactive
GI50 (SK-MEL-5): 0.249 µM
GI50 (DU-145): 0.505 µM
GI50 (HCT-116): 0.42 µM
GI50 (SR): inactive
GI50 (UACC-62): 0.357 µM
GI50 (MCF7): 0.333 µM
GI50 (K562): 0.243 µM
GI50 [8]: 0.224 µM
GI50 [9]: 0.332 µM
GI50 (U-251): 0.374 µM
GI50 (M14): 0.31 µM
GI50 (Malme-3M): 0.635 µM
GI50 (UACC-257): 12.8 µM
GI50 [10]: 0.297 µM
GI50 (CAKI-1): 0.223 µM
GI50 (OVCAR-3): 0.279 µM
GI50 (HCT-15): 0.455 µM
GI50 (SK-OV-3): 0.576 µM
GI50 (SK-MEL-2): 0.709 µM
GI50 (NCI-H23): 0.747 µM
GI50 [11]: 0.289 µM
GI50 (T47D): 0.628 µM
GI50 (MDA-MB-468): 0.217 µM
GI50 (ACHN): 1.19 µM
GI50 (SK-MEL-28): 1.4 µM
GI50 (A498): 0.333 µM
GI50 (MDA-MB-435): 0.053 µM
GI50 [12]: 1.45 µM
GI50 (KM12): 0.409 µM
GI50 (OVCAR-5): 0.587 µM
GI50 (786-0): 0.484 µM

COc1cc(/C(C#N)=C/c2cnc3ccccc3c2)cc(OC)c1OC
GI50 (SNB-19): 5.23 µM
GI50 [1]: 0.645 µM
GI50 (HT-29): 0.421 µM
GI50 (HOP-62): 10.3 µM
GI50 [2]: 3.2 µM
GI50 (IGROV-1): 3.15 µM
GI50 (SW-620): inactive
GI50 (PC-3): 1.08 µM
GI50 (SN12C): 1.94 µM
GI50 (NCI-H322M): 27.4 µM
GI50 (OVCAR-8): 3.41 µM
GI50 (TK-10): 2.55 µM
GI50 (SF-268): 9.17 µM
GI50 (SNB-75): 1.49 µM
GI50 [3]: 1.43 µM
GI50 (NCI-H522): 0.299 µM
GI50 (CCRF-CEM): 1.38 µM
GI50 [4]: 1.31 µM
GI50 (MDA-MB-231): 2.83 µM
GI50 [5]: 0.556 µM
GI50 [6]: 0.403 µM
GI50 (OVCAR-4): 13.8 µM
GI50 (NCI-H226): > 100 µM
GI50 (NCI-H460): 2.05 µM
GI50 [7]: 0.374 µM
GI50 (HL-60(TB)): 0.329 µM
GI50 (A549): 0.68 µM
GI50 (EKVX): inactive
GI50 (SK-MEL-5): 0.41 µM
GI50 (DU-145): 1.51 µM
GI50 (HCT-116): 0.464 µM
GI50 (SR): 0.569 µM
GI50 (UACC-62): 0.478 µM
GI50 (MCF7): 0.429 µM
GI50 (K562): 0.444 µM
GI50 [8]: 0.343 µM
GI50 [9]: 2.06 µM
GI50 (U-251): 1.7 µM
GI50 (M14): 0.54 µM
GI50 (Malme-3M): 0.691 µM
GI50 [10]: 0.579 µM
GI50 (CAKI-1): 0.346 µM
GI50 (OVCAR-3): 0.263 µM
GI50 (HCT-15): 1.08 µM
GI50 (SK-OV-3): 1.34 µM
GI50 (SK-MEL-2): 1.05 µM
GI50 (NCI-H23): 2.93 µM
GI50 [11]: 0.361 µM
GI50 (T47D): 9.54 µM
GI50 (MDA-MB-468): 0.87 µM
GI50 (ACHN): 0.911 µM
GI50 (UO-31): 0.58 µM
GI50 (SK-MEL-28): 3.27 µM
GI50 (A498): 0.678 µM
GI50 (MDA-MB-435): 0.227 µM
GI50 [12]: 2.01 µM
GI50 (KM12): 0.436 µM
GI50 (OVCAR-5): 3.94 µM
GI50 (786-0): 6.29 µM
